Experimental data published in patent publication US6716833B2, “Acetylenic α-amino acid-based sulfonamide hydroxamic acid tace inhibitors” (priority 1999, dated 2004).
pIC50: −log10 of the molar value. Counter-ions that a name gives are not always drawn. Like-named read-outs stand apart in the source and are kept apart here.

Assays:
[1] = target: TNF-α converting enzyme (TACE) (Homo sapiens, UniProt P78536); assay: TACE inhibition (fluorescent peptidyl substrate); type: biochemical; conditions: read-out: TACE IC50
Protocol: Using 96-well black microtiter plates, each well receives a solution composed of 10 μL TACE (final concentration 1 μg/mL), 70 μL Tris buffer, pH 7.4 containing 10% glycerol (final concentration 10 mM), and 10 μL of test compound solution in DMSO (final concentration 1 μM, DMSO concentration <1%) and incubated for 10 minutes at room temperature.
The reaction is read (excitation 340 nm, emission 420 nm) for 10 min. and the increase in fluorescence over time is plotted as a linear line. The slope of the line is calculated and represents the reaction rate.
The linearity of the reaction rate is confirmed (r^2>0.85). The mean (x±sem) of the control rate is calculated and compared for statistical significance (p<0.05) with drug-treated rates using Dunnett's multiple comparison test.

THP-1 cells = assay: THP-1 soluble protein assay, soluble TNF-α (ELISA); type: cell-based, human; conditions: for inhibition at 3 µM: Homo sapiens
Protocol: Each vial of cells are cultured for about two weeks prior to being used for an assay and then are used for only 4 to 6 weeks to screen compounds.
Cell exposure to DMSO was limited to 0.1% final concentration. […] Plates are placed into an incubator set at 5% CO2 and at 37° C. After 4 hours of incubation, 300 ml/well of tissue culture supernatant (TCS) is removed for use in an TNF-α ELISA.
Percent change in each soluble protein evaluated from the “vehicle positive control” was calculated for each compound concentration with the following formula:
% Change=pg/ml (compound)−pg/ml (veh pos control)/(veh pos control)−pg/ml (veh neg control)×100
For the soluble protein (TNF-α, p75/80, p55/60, IL-8) studies under stimulated conditions, the mean pg/ml of duplicate wells were determined and the results expressed as percent change from “vehicle positive control”.

MMP-9 = MMP-9 (Homo sapiens, UniProt P14780); assay: MMP-9 inhibition (thiopeptide or fluorescent peptide substrate); type: biochemical; conditions: read-out: MMP-9 IC50
MMP-13 = MMP-13 (Homo sapiens, UniProt P45452); assay: MMP-13 inhibition (thiopeptide or fluorescent peptide substrate); type: biochemical; conditions: read-out: MMP-13 IC50
MMP-1 = target: T1, MMP-1 (Homo sapiens, UniProt P03956); assay: MMP-1 inhibition (thiopeptide or fluorescent peptide substrate); type: biochemical; conditions: for pIC50: read-out: MMP-1 IC50
T1 sequence (P03956 100-469): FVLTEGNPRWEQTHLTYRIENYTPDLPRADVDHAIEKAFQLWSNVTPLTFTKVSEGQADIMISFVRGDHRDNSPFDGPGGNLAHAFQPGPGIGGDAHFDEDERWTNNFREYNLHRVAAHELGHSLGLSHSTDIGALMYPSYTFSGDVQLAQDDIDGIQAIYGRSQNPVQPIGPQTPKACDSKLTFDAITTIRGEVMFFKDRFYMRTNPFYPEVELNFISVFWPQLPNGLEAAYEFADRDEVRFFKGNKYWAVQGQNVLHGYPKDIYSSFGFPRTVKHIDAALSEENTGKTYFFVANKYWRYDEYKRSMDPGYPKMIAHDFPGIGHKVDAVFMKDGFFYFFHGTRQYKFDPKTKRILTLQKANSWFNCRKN

[2] = THP-1, 3 μM, THP-1 cells, read-out: THP % Inhibition @ 3 μM

Chain of MMP-9 (P14780 94-707): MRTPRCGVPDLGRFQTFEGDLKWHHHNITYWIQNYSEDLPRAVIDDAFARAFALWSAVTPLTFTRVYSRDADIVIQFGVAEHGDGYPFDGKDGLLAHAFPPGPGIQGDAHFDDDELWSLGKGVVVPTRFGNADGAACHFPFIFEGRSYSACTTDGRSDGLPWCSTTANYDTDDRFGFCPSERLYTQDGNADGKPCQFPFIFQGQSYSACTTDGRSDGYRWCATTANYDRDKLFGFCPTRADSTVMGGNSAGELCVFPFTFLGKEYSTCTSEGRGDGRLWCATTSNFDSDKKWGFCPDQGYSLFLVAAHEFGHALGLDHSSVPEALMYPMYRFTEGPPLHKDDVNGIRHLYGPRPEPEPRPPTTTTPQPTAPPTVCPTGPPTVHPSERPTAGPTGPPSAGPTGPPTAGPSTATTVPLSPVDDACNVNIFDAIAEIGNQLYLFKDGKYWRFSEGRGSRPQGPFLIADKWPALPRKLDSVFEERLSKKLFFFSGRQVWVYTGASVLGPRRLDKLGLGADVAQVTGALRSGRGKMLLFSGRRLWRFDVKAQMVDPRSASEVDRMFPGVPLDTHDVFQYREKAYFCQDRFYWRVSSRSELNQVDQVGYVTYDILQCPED
Chain of TNF-α converting enzyme (TACE) (P78536 215-824, species assumed): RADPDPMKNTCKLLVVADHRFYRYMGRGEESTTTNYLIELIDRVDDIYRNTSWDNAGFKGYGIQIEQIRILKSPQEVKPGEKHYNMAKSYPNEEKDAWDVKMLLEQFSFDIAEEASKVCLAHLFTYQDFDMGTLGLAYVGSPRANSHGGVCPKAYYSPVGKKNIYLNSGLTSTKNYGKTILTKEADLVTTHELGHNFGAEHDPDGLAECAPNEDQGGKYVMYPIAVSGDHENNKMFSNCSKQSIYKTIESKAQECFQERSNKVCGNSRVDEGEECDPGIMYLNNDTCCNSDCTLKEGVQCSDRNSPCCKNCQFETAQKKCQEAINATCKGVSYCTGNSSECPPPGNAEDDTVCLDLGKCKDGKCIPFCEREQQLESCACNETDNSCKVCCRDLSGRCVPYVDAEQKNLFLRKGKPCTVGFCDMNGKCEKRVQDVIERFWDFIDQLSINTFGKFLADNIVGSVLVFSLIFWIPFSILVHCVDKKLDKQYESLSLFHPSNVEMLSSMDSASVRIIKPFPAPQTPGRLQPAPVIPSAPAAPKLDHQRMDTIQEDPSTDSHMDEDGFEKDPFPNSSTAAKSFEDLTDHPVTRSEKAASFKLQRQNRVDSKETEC

Compound	pIC50 [1]	pIC50 (MMP-13)	melting point	pIC50 (MMP-9)	pIC50 (MMP-1)	further results
CC#CCOc1ccc(S(=O)(=O)N2C[C@H](CNC(=O)OC(C)(C)C)SC(C)(C)[C@@H]2C(=O)NO)cc1 [Example 274, tert-Butyl{(2S,5S)-4-{[4-(2-butynyloxy)phenyl]sulfonyl}-5-[(hydroxyamino)carbonyl]-6,6-dimethylthiomorpholinyl}methylcarbamate]						pIC50 ([1]; Table 11): 7.23; THP % Inhibition @ 3 μM (THP-1 cells; Table 11): 84%; pIC50 (MMP-9; Table 11): 6.97
3-(Benzylthio)-2-[[[4-(2-butynyloxy)phenyl]sulfonyl]methylamino]-N-hydroxypropanamide [Example 156]	8.32	8.35				THP % Inhibition @ 3 μM (THP-1 cells; THP-1 cells): 75%
CC#CCOc1ccc(S(=O)(=O)N(C)[C@@H](C(=O)NO)[C@H]2CC[C@H](O)CC2)cc1 [Example 130]	7.64	7.82	195 to 197 °C	7.52	6.77	
CC#CCOc1ccc(S(=O)(=O)NC(C(=O)NO)c2ccc(OCCN(C)C(=O)OC(C)(C)C)cc2)cc1 (stereo not shown) [Example 203, tert-Butyl 4-(2-{4-[1-({[4-(2-Butynyloxy)phenyl]sulfonyl}amino)-2-(hydroxyamino)-2-oxoethyl)phenoxy]ethyl)-(methyl)carbamate]	7.31	6.90	90 to 92 °C	6.07	< 5.00	
CC#CCOc1ccc(S(=O)(=O)NC(C)(C)C(=O)NO)cc1 [Example 35, 2-(4-but-2-ynyloxy-Benzenesulfonylamino)-N-hydroxy-2-methyl-propionaiwde]	7.89	6.40		5.86		inhibition at 3 µM (THP-1 cells; [2]): 9%
CC#CCOc1ccc(S(=O)(=O)N[C@@H](C(=O)NO)C(C)(C)SCCCO)cc1 [Example 171, (2S)-2-({[4-(2-Butynyloxy)phenyl]sulfonyl}amino)-N-hydroxy-3-[(3-hydroxypropyl)sulfanyl]-3-methylbutanamide]	7.60	7.44			5.67	inhibition at 3 µM (THP-1 cells; [2]): 67%
2-[(4-but-2-Ynylthiophenylsulfonyl)methylamino]-N-hydroxyacetamide [Example 134]		7.08		6.95	5.31	THP % Inhibition @ 3 μM (THP-1 cells; THP-1 cells): 14%
CC#CCOc1ccc(S(=O)(=O)N(Cc2cccnc2)C2(C(=O)NO)CCCCC2)cc1 [Example 137, 1-[{[4-(2-Butynyloxy)phenyl]sulfonyl}(3-pyridinylmethyl)amino]N-hydroxycyclohexanecarboxamide]	6.72	7.32	179 to 181 °C	7.10	6.32	
CC#CCOc1ccc(S(=O)(=O)N(C)C(C(=O)NO)C(C)(C)SC)cc1 (stereo not shown) [Example 149, 2-[(4-but-2-ynyloxy-Benenesulfonyl)-methyl-amino]-N-hydroxy-3-methyl-3-methylsulfanyl-butyramide]	7.54	8.34	132 to 135 °C	7.89	7.77	
CC#CCOc1ccc(S(=O)(=O)N(C)C(C(=O)NO)C(C)(C)SCCCN2CCOCC2)cc1 (stereo not shown) [Example 146]	6.88	8.44	48 to 52 °C	8.28	7.89	
CC#CCOc1ccc(S(=O)(=O)N2CCSC(CC)(CC)C2C(=O)NO)cc1 (stereo not shown) [Example 238]						pIC50 ([1]; Table 9): 6.64; THP % Inhibition @ 3 μM (THP-1 cells; Table 9): 73%; pIC50 (MMP-13; Table 9): 8.17; pIC50 (MMP-1; Table 9): 7.42
CC#CCOc1ccc(S(=O)(=O)N(C)C(C(=O)NO)C(C)(C)SCc2ccccc2)cc1 (stereo not shown) [Example 153, 2-[(4-but-2-ynyloxy-Benenesulfonyl)-methyl-amino]-N-hydroxy-3-methyl-3-benzylsulfanyl-butyramide]	6.80	8.70	156 to 158 °C	8.26	7.89	
CC1(C)SCCN(S(=O)(=O)c2ccc(OCC#CCO)cc2)[C@H]1C(=O)NO [Example 260, (3S)-N-Hydroxy-4-({4-[(4-hydroxy-2-butynyl)oxy]phenyl}sulfonyl)-2,2-dimethyl-3-thiomorpholine Carboxamide]						pIC50 ([1]; Table 10): 7.70; inhibition at 3 µM (THP-1 cells; THP-1, 3 μM, Table 10, read-out: THP % Inhibition @ 3 μM): 95%; pIC50 (MMP-13; Table 10): 8.09; pIC50 (MMP-1; Table 10): 7.48
CC#CCOc1ccc(S(=O)(=O)N2CCSC3(CCCCC3)C2C(=O)NO)cc1 (stereo not shown) [Example 237]						pIC50 ([1]; Table 9): 6.67; THP % Inhibition @ 3 μM (THP-1 cells; Table 9): 90%; pIC50 (MMP-13; Table 9): 7.92; pIC50 (MMP-1; Table 9): 7.21
CC#CCOc1ccc(S(=O)(=O)N(C)C(C(=O)NO)C(C)(C)SCCCN2CCN(C)CC2)cc1 (stereo not shown) [Example 147, 2-({[4-(2-Butynyloxy)phenyl]sulfonyl)(methyl)amino]-N-hydroxy-3 Methyl-3-{[2(4-methyl-1-ethyl-1-piperazinyl)propyl]sulfanyl}butanamide]	6.80	8.28	58 to 62 °C	8.28	7.68	
CC#CCOc1ccc(S(=O)(=O)NCC(=O)NO)cc1 [Example 25, 2-(4-but-2-ynyloxy-Benzenesulfonylamino)-N-hydroxy-acetamide]	8.32			6.12		inhibition at 3 µM (THP-1 cells; [2]): 39%; MMP-1 % inhibition (10) (MMP-1; at (10), concentration unit not given): 47%(10)
CC#CCOc1ccc(S(=O)(=O)NC(CSC)C(=O)NO)cc1 (stereo not shown) [Example 167]	8.46			6.64	5.76	THP % Inhibition @ 3 μM (THP-1 cells; THP-1 cells): 77%
CC#CCOc1ccc(S(=O)(=O)NC2(C(=O)NO)CCNCC2)cc1 [Example 288, 4-({[4-(2-Butynyloxy)phenyl]sulfonyl}amino)-N-hydroxy-4-piperidinecarboxamide]	7.30	< 5.00			< 5.00	inhibition at 3 µM (THP-1 cells; [2]): 25%
CC#CCOc1ccc(S(=O)(=O)N(C)C(C(=O)NO)C(C)(C)SCCN2CCN(C)CC2)cc1 (stereo not shown) [Example 141]	7.00	8.12	110 to 115 °C	8.08	7.77	
CC#CCOc1ccc(S(=O)(=O)NC(CSCc2ccccc2)C(=O)NO)cc1 (stereo not shown) [Example 168]	8.35			6.85	5.71	THP % Inhibition @ 3 μM (THP-1 cells; THP-1 cells): 62%
CC#CCOc1ccc(S(=O)(=O)N(C)C(C(=O)NO)C(C)(C)SCC)cc1 (stereo not shown) [Example 150, 2-[(4-but-2-ynyloxy-Benenesulfonyl)-methyl-amino]-N-hydroxy-3-methyl-3-ethylsulfanyl-butyramide]	7.29	8.03			7.60	THP % Inhibition @ 3 μM (THP-1 cells; THP-1 cells): 86%
CC#CCOc1ccc(S(=O)(=O)N(Cc2cccnc2)C(CSCc2ccccc2)C(=O)NO)cc1 (stereo not shown) [Example 157, 3-(Benzylthio)-2-[[[4-(2-butynyloxy)phenyl]sulfonyl]pyridin-3-ylmethylamino]-N-hydroxypropanamide]	7.01	8.42	74 to 78 °C	7.49	6.95	
CC#CCOc1ccc(S(=O)(=O)N(C)C2(C(=O)NO)CCCCC2)cc1 [Example 136, 1-[{[4-(2-Butynyloxy)phenyl]sulfonyl}(methyl)amino]-N-hydroxycyclohexanecarboxamide]	6.24	5.79	89 to 92 °C	5.43	6.17	
CC#CCOc1ccc(S(=O)(=O)NC2(C(=O)NO)CCN(C(=O)OC(C)(C)C)CC2)cc1 [Example 287, tert-Butyl 4-({[4-(2-Butynyloxy)phenyl]sulfonyl}amino)-4-[(hydroxyamino)carbonyl]-1-piperidinecarboxylate]	7.43	6.28			< 5.00	inhibition at 3 µM (THP-1 cells; [2]): 60%
CC#CCOc1ccc(S(=O)(=O)N[C@H](CSCCCO)C(=O)NO)cc1 [Example 172, (2S)-2-({[4-(2-Butynyloxy)phenyl]sulfonyl}amino)-N-hydroxy-3-[(3-hydroxypropyl)sulfanyl]-3-propanamide]	7.96	6.77			< 6.00	inhibition at 3 µM (THP-1 cells; [2]): 70%
CC#CCOc1ccc(S(=O)(=O)N(CC(=O)NO)Cc2cccnc2)cc1 [Example 23, 2-[(4-but-2-ynyloxy-Benzenesulfonyl)-pyridin-3-ylmethyl-amino]-N-hydroxyacetamide Hydrochloride]						inhibition at 3 µM (THP-1 cells; THP-1, read-out: THP % Inhibition @ 3 μM): 63%
CC#CCOc1ccc(S(=O)(=O)N2C[C@@H](CNC(=O)OC(C)(C)C)SC(C)(C)[C@@H]2C(=O)NO)cc1 [Example 273, tert-Butyl{(2R,5S)-4-{[4-(2-butynyloxy)phenyl]sulfonyl}-5-[(hydroxyamino)carbonyl]-6,6-dimethylthiomorpholinyl}methylcarbamate]						pIC50 ([1]; Table 11): 7.06; inhibition at 3 µM (THP-1 cells; THP-1, 3 μM, Table 11, read-out: THP % Inhibition @ 3 μM): 90%; pIC50 (MMP-9; Table 11): 7.21
